# Values quoted from earlier work, collected in patent US20080085858A1, “Pharmaceutical Composition” (KYOWA HAKKO KOGYO CO., LTD., priority 2004, published 2008).
# Assays:
# [1] = system: delayed-type allergic reaction in the skin; conditions: animal model; Non-patent Document 1
# [2] = system: chronic dermatitis models; conditions: Non-patent Document 2
smiles,measurement,setting,value
COc1ccc([C@]2(C#N)CC[C@@H](C(=O)O)CC2)cc1OC1CCCC1 [SB207499],Effect on delayed-type allergic reaction in the skin,[1],inhibit a delayed-type allergic reaction in the skin
same,Therapeutic effects on chronic dermatitis models,[2],exhibit therapeutic effects on chronic dermatitis models
